Experimental data taken from patent US7692002B2, “Metal complexes having vitamin B12 as a ligand” (University of Zurich, priority 2004, dated 2010).

Test system: mouse melanoma cell line (B16F1)
Assay: Cytotoxicity tests with a mouse melanoma cell line (B16F1)
Format: cell-based
Settings: B16F1 mouse melanoma cells, concentration of 100 μM

Cyanocobalamin [vitamin B12]
proliferation inhibition: no effect at all
